# Experimental data: US20080161273A1, “Method of Using Adapalene in Acne Maintenance Therapy” (GALDERMA RESEARCH & DEVELOPMENT, priority 2004, published 2008)
# Like-named read-outs stand apart in the source and are kept apart here.
# How the values were obtained:
# [1] = test system: acne vulgaris; assay: 16-week maintenance therapy study after adapalene-doxycycline combination therapy: efficacy (maintenance rate, lesion counts, global severity); format: in vivo, human
# Excerpt: The efficacy and safety of the adapalene gel 0.1% (Galderma Laboratories, LP, Ft. Worth, Tex.) as a maintenance therapy were compared to gel vehicle in a randomized, multicenter, vehicle-controlled, investigator-blind, parallel group study conducted at 34 centers in the United States between Nov. 13, 2003 and May 25, 2004. This study was designed to set a high threshold for achieving success. […] These subjects were re-randomized consecutively in a 1:1 ratio to receive either adapalene gel 0.1% or adapalene gel vehicle once-daily in the evening for an additional 16 weeks. Subjects were stratified by the treatment assignment received in the previous study using an interactive voice responsive system. The randomization schedule remained blinded from those involved in the clinical conduct of the study. The integrity of the blinding was ensured by packaging the topical medication in identical tubes and requiring a third party other than the investigator/evaluator to dispense the medication. Exclusion criteria prohibited enrollment of subjects with acne requiring isotretinoin therapy or other dermatologic conditions requiring interfering treatment. Women were excluded if they were pregnant, nursing, or planning a pregnancy as were men with facial hair that would interfere with the assessments. Subjects were provided Cetaphil® daily facial moisturizer SPF 15 (Galderma Laboratories, LP., Ft Worth, Tex.) to use as needed for the symptomatic relief of skin dryness or irritation. Evaluations for this study occurred at baseline and at weeks 4, 8, 12, and 16. The final visit from the previous 12-week combination study served as the baseline visit for this 16-week maintenance study. The primary efficacy variable was the failure rate at week 16, defined as the percentage of subjects unable to maintain 50% of total lesion count improvement from the previous 12-week combination therapy study (e.g., a subject entering the maintenance phase after having lost 40 lesions in the combination study was considered as a failure if the lesion count at the end of the maintenance study was increased by more than 20 lesions). Data from this assessment is presented graphically herein as a maintenance rate, which is simply 100% minus the failure rate. Secondary efficacy variables included lesion counts (total, inflammatory and non inflammatory), failure rates for inflammatory and non-inflammatory lesions, as well as global severity and global improvement of the disease. At the last visit, subject satisfaction was assessed via a 5-question survey. All data analyses were carried out according to a pre-established analysis plan. A sample size of 113 subjects per group was deemed necessary to detect a statistically significant difference in failure rate between treatment groups based on the use of a 2-tailed test with […] and a power of 90%; an assumption of a 15% efficacy difference between the 2 treatment groups; and a dropout rate of 10%. Three study populations were analyzed. The safety population was defined as all patients randomized and treated at least once. The intent-to-treat (ITT) population included all randomized subjects who were dispensed study medication. The per-protocol (PP) population included all randomized subjects without any major protocol deviations. […] Analyses for efficacy were performed on week 16 data for the ITT population and the PP population. Last observation carried forward (LOCF) methodology was used to account for missing data for the ITT population analysis (lesion counts). In addition, all subjects with missing data at week 16 were considered failures for the failure rate analysis (worst case). Age was tested at baseline with the analysis of variance (ANOVA) model with treatment, center, and their interaction as factors. All other variables were analyzed by using the Cochran-Mantel-Haenzsel (CMH) test controlling for “analysis center” and previous treatment for both the ITT and PP populations. […]
# [2] = 16-week maintenance therapy study: safety, local facial tolerability, adverse events, discontinuation; format: in vivo, human
# Excerpt: The efficacy and safety of the adapalene gel 0.1% (Galderma Laboratories, LP, Ft. Worth, Tex.) as a maintenance therapy were compared to gel vehicle in a randomized, multicenter, vehicle-controlled, investigator-blind, parallel group study conducted at 34 centers in the United States between Nov. 13, 2003 and May 25, 2004. This study was designed to set a high threshold for achieving success. […] These subjects were re-randomized consecutively in a 1:1 ratio to receive either adapalene gel 0.1% or adapalene gel vehicle once-daily in the evening for an additional 16 weeks. Subjects were stratified by the treatment assignment received in the previous study using an interactive voice responsive system. The randomization schedule remained blinded from those involved in the clinical conduct of the study. The integrity of the blinding was ensured by packaging the topical medication in identical tubes and requiring a third party other than the investigator/evaluator to dispense the medication.
# Safety and tolerability were assessed through evaluations of local facial tolerability and adverse events. At each visit, the investigator rated erythema, scaling, dryness, and stinging/burning on a scale ranging from 0 (none) to 3 (severe). Mean scores at each postbaseline visit and worst score (worst observation recorded for a subject during the post-baseline period) were recorded. Adverse events were also evaluated at each visit.
# Three study populations were analyzed. The safety population was defined as all patients randomized and treated at least once. The intent-to-treat (ITT) population included all randomized subjects who were dispensed study medication. The per-protocol (PP) population included all randomized subjects without any major protocol deviations.
# [3] = 5-question subject satisfaction survey at last visit of the maintenance study; format: in vivo, human; settings: P=0.94 vs vehicle
# Excerpt: The primary efficacy variable was the failure rate at week 16, defined as the percentage of subjects unable to maintain 50% of total lesion count improvement from the previous 12-week combination therapy study (e.g., a subject entering the maintenance phase after having lost 40 lesions in the combination study was considered as a failure if the lesion count at the end of the maintenance study was increased by more than 20 lesions). Data from this assessment is presented graphically herein as a maintenance rate, which is simply 100% minus the failure rate. Secondary efficacy variables included lesion counts (total, inflammatory and non inflammatory), failure rates for inflammatory and non-inflammatory lesions, as well as global severity and global improvement of the disease. At the last visit, subject satisfaction was assessed via a 5-question survey.
# [4] = applied as monotherapy, versus tazarotene and tretinoin formulations, cited from earlier work
compound,measurement,setting,value
"COc1ccc(-c2ccc3cc(C(=O)O)ccc3c2)cc1C12CC3CC(CC(C3)C1)C2 [adapalene, 6-[3-(1-adamantyl)-4-methoxyphenyl]-2-naphtoic acid]",lesion counts during the course of the study versus baseline,"[1]; 16 weeks, vehicle group gradually increased",remained stable or decreased
same,"subjects ""clear"" or ""almost clear"" in global severity assessment",[1]; P=0.005 for distribution of severity scores vs vehicle,27%
same,global assessment of improvement versus vehicle,[1]; P=0.01,significant advantages
same,total lesion counts relative to vehicle,"[1]; end point week 16, ITT, LOCF, P=0.005",significantly lower
same,inflammatory lesion counts relative to vehicle,"[1]; end point week 16, ITT, LOCF, P=0.01",significantly lower
same,noninflammatory lesion counts relative to vehicle,"[1]; end point week 16, ITT, LOCF, P=0.02",significantly lower
same,"maintenance rate, total lesion counts (subjects maintaining at least 50% of improvement from previous combination study)","[1]; week 16, ITT, worst case (missing data = failure), once-daily for 16 weeks, P<0.001 vs vehicle",75%
same,overall safety and tolerability,[2]; 16-week study,safe and well tolerated
same,subjects experiencing adverse events,[2]; 16-week study,25%
same,subjects with treatment-related adverse events (percentage),[2]; 16-week study,2.4%
same,subjects with treatment-related adverse events (number),"[2]; 16-week study, 126 subjects in group",3 subjects
same,"mean worst score for each local cutaneous tolerability variable, large majority of subjects","[2]; scale none, mild, moderate, severe",none or mild
same,subjects not bothered by side effects,[3],90%
same,tolerability / cutaneous irritation profile versus other topical retinoids,[4],more favorable cutaneous irritation profile
same,tolerability / cutaneous irritation profile versus other topical retinoids,[4]; listed as Adapalene,more favorable tolerability profile
